Source: ChEMBL document CHEMBL1201862, “PubChem BioAssay data set” (2004)
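Growth conditions: 96-well plates. Treatment: test compound, 48 hours, 5 concentrations. Analysis: linear interpolation between bracketing concentrations; unreached endpoints set to highest concentration. GI50 marks 50% less growth.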 Active and inactive are the calls of the source. Cut-off read from the data, not from the text of the source: active = GI50 up to about 1.1 µM and inactive = higher.

Tests used:
Assay in all cases: inhibition of tumour cell growth, NCI panel, 48 h
CCRF-CEM = system: CCRF-CEM
DU-145 = system: DU-145
EKVX = system: EKVX
HL-60 = system: HL-60
HOP-62 = system: HOP-62
HT-29 = system: HT-29
Hs-578T = system: Hs-578T
IGROV-1 = system: IGROV-1
K562 = system: K562
MDA-MB-231 = system: MDA-MB-231
MDA-MB-435 = system: MDA-MB-435
MDA-N = system: MDA-N
NCI-H226 = system: NCI-H226
OVCAR-3 = system: OVCAR-3
OVCAR-4 = system: OVCAR-4
RPMI-8226 = system: RPMI-8226
SF-295 = system: SF-295
SK-MEL-28 = system: SK-MEL-28
SK-MEL-5 = system: SK-MEL-5

Measured: GI50

C=C1CCCC2[C@](C)(CC3=C(Cl)C(=O)C=C(OC)C3=O)C(C)CC[C@]12C (stereo partly specified)
inactive: CCRF-CEM 1.45 µM | DU-145 8.04 µM | EKVX 2.02 µM | HL-60 1.9 µM | HOP-62 6.55 µM | HT-29 2.51 µM | Hs-578T 8.71 µM | IGROV-1 1.9 µM | K562 1.67 µM | MDA-MB-231 7.6 µM | MDA-MB-435 6.62 µM | MDA-N 6.95 µM | NCI-H226 7.6 µM | OVCAR-3 5.93 µM | OVCAR-4 7.52 µM | RPMI-8226 1.63 µM | SF-295 7.41 µM | SK-MEL-28 7.31 µM | SK-MEL-5 6.43 µM

COC(=O)[C@H](CC(C)C)NC1=C(Cl)C(=O)c2c(O)ccc(O)c2C1=O
inactive: CCRF-CEM 4.31 µM | DU-145 > 10 µM | EKVX > 10 µM | HL-60 8.02 µM | HOP-62 > 10 µM | HT-29 3.01 µM | Hs-578T > 10 µM | IGROV-1 > 10 µM | K562 > 10 µM | MDA-MB-231 > 10 µM | MDA-MB-435 8.89 µM | MDA-N 8.73 µM | NCI-H226 > 10 µM | OVCAR-3 1.73 µM | OVCAR-4 > 10 µM | RPMI-8226 4.81 µM | SF-295 > 10 µM | SK-MEL-28 > 10 µM | SK-MEL-5 > 10 µM

C[n+]1c(-c2ccc(/C=C/C=N\NC(=O)c3ccc(C(=O)N/N=C\C=C\c4ccc(-c5cn6ccccc6[n+]5C)cc4)cc3)cc2)cn2ccccc21
inactive: CCRF-CEM 23.9 µM | DU-145 > 54.3 µM | EKVX > 100 µM | HL-60 30.2 µM | HOP-62 > 100 µM | HT-29 > 100 µM | Hs-578T > 100 µM | IGROV-1 > 68.5 µM | K562 27.5 µM | MDA-MB-231 > 43.3 µM | MDA-MB-435 > 100 µM | MDA-N > 100 µM | NCI-H226 > 100 µM | OVCAR-3 > 64 µM | OVCAR-4 > 81.7 µM | RPMI-8226 38.1 µM | SF-295 > 100 µM | SK-MEL-28 > 100 µM | SK-MEL-5 > 84.5 µM

O=c1c2ccccc2nc(-c2ccccc2)n1/N=C/c1ccccc1[N+](=O)[O-]
inactive: CCRF-CEM > 100 µM | DU-145 > 100 µM | EKVX > 51.1 µM | HL-60 > 100 µM | HOP-62 13.6 µM | HT-29 > 100 µM | Hs-578T 1.59 µM | IGROV-1 > 69.7 µM | K562 > 100 µM | MDA-MB-231 17.7 µM | MDA-MB-435 > 100 µM | MDA-N > 100 µM | NCI-H226 61.1 µM | OVCAR-3 > 100 µM | OVCAR-4 > 91.2 µM | RPMI-8226 > 100 µM | SF-295 22.8 µM | SK-MEL-28 > 100 µM | SK-MEL-5 > 75.2 µM

COc1cccc2cc(C(=O)NC34CC5CC(CC(C5)C3)C4)c(=N)oc12
inactive: CCRF-CEM 8.04 µM | DU-145 > 100 µM | EKVX > 61.8 µM | HL-60 3.13 µM | HOP-62 53.1 µM | HT-29 47.1 µM | Hs-578T 34 µM | IGROV-1 > 46.3 µM | K562 50.9 µM | MDA-MB-231 > 100 µM | MDA-MB-435 > 82.4 µM | MDA-N > 100 µM | NCI-H226 > 61 µM | OVCAR-3 24.6 µM | OVCAR-4 > 60.4 µM | RPMI-8226 25.6 µM | SF-295 68.5 µM | SK-MEL-28 > 71 µM | SK-MEL-5 > 69.2 µM

Cc1cc(S(=O)(=O)n2ccnc2Oc2cccc(Cl)c2)c(SSc2cc(Cl)c(C)cc2S(=O)(=O)n2ccnc2Oc2cccc(Cl)c2)cc1Cl
inactive: CCRF-CEM 2.81 µM | DU-145 5.32 µM | EKVX 4 µM | HL-60 4.18 µM | HOP-62 9.57 µM | HT-29 7.83 µM | Hs-578T 4.19 µM | IGROV-1 8.13 µM | K562 9.93 µM | MDA-MB-231 12.4 µM | MDA-MB-435 5.65 µM | MDA-N 8.38 µM | NCI-H226 6.37 µM | OVCAR-3 8.02 µM | OVCAR-4 9.57 µM | RPMI-8226 2.67 µM | SF-295 4.19 µM | SK-MEL-28 14.1 µM | SK-MEL-5 3.42 µM

CCOC(=O)c1ccc(C(=O)C(C(C)=O)C(=O)OC(C)(C)C)n1C (stereo unspecified)
inactive: CCRF-CEM 71.3 µM | DU-145 > 100 µM | EKVX > 100 µM | HL-60 67.9 µM | HOP-62 > 100 µM | HT-29 > 100 µM | Hs-578T > 100 µM | IGROV-1 > 100 µM | K562 > 100 µM | MDA-MB-231 > 100 µM | MDA-MB-435 > 100 µM | MDA-N > 100 µM | NCI-H226 > 100 µM | OVCAR-3 > 100 µM | OVCAR-4 > 100 µM | RPMI-8226 > 100 µM | SF-295 > 100 µM | SK-MEL-28 > 100 µM | SK-MEL-5 > 100 µM

COC(=O)C1C(OC(=O)c2ccccc2)CC2CCC1N2C(N)=O (stereo unspecified)
inactive: CCRF-CEM > 100 µM | DU-145 > 100 µM | EKVX > 100 µM | HL-60 > 100 µM | HOP-62 > 100 µM | HT-29 > 100 µM | Hs-578T > 100 µM | IGROV-1 > 100 µM | K562 > 100 µM | MDA-MB-231 > 100 µM | MDA-MB-435 > 100 µM | MDA-N > 100 µM | NCI-H226 > 100 µM | OVCAR-3 > 100 µM | OVCAR-4 > 100 µM | RPMI-8226 > 100 µM | SF-295 > 100 µM | SK-MEL-28 > 100 µM | SK-MEL-5 > 100 µM

O=C1Nc2ccccc2/C1=N/NC(=S)Nc1ccc(Cl)cc1
inactive: CCRF-CEM 22.8 µM | DU-145 > 100 µM | EKVX 36.2 µM | HL-60 39 µM | HOP-62 34.8 µM | HT-29 41 µM | Hs-578T > 100 µM | IGROV-1 26.6 µM | K562 29.9 µM | MDA-MB-231 26.7 µM | MDA-MB-435 39.8 µM | MDA-N 63.7 µM | NCI-H226 22.2 µM | OVCAR-3 25.8 µM | OVCAR-4 30.4 µM | RPMI-8226 49.7 µM | SF-295 23.7 µM | SK-MEL-28 > 100 µM | SK-MEL-5 17.2 µM

CCOC(=O)c1c(Nc2ccccc2)sc2cccnc12
inactive: CCRF-CEM 10.5 µM | DU-145 28.7 µM | EKVX 18.5 µM | HL-60 15.1 µM | HOP-62 35.5 µM | HT-29 5.48 µM | Hs-578T 35.3 µM | IGROV-1 23 µM | K562 8.36 µM | MDA-MB-231 6.56 µM | MDA-MB-435 22.6 µM | MDA-N 6.73 µM | NCI-H226 5.68 µM | OVCAR-3 17.4 µM | OVCAR-4 23.3 µM | RPMI-8226 2.05 µM | SF-295 21.4 µM | SK-MEL-28 20.8 µM | SK-MEL-5 3.56 µM

O=C(O)C(Cl)(c1ccccc1)c1ccccc1
inactive: CCRF-CEM > 100 µM | DU-145 > 100 µM | EKVX > 100 µM | HL-60 > 100 µM | HOP-62 > 100 µM | HT-29 > 100 µM | Hs-578T > 100 µM | IGROV-1 > 100 µM | K562 83 µM | MDA-MB-231 > 100 µM | MDA-MB-435 > 100 µM | MDA-N > 100 µM | NCI-H226 > 100 µM | OVCAR-3 > 100 µM | OVCAR-4 > 100 µM | RPMI-8226 > 100 µM | SF-295 > 100 µM | SK-MEL-28 > 100 µM | SK-MEL-5 > 100 µM

C#CCn1c(I)cc2c(c1=O)COC(=O)[C@]2(O)CC
inactive: CCRF-CEM > 100 µM | DU-145 > 100 µM | EKVX > 100 µM | HL-60 > 100 µM | HOP-62 > 100 µM | HT-29 > 100 µM | Hs-578T > 100 µM | IGROV-1 > 100 µM | K562 > 100 µM | MDA-MB-231 > 100 µM | MDA-MB-435 > 100 µM | MDA-N > 100 µM | NCI-H226 > 100 µM | OVCAR-3 > 100 µM | OVCAR-4 > 100 µM | RPMI-8226 > 100 µM | SF-295 > 100 µM | SK-MEL-28 > 100 µM | SK-MEL-5 > 100 µM

CCOC(=O)c1ccc2c(c1)Cc1cc([N+](=O)[O-])ccc1-2
inactive: CCRF-CEM 61.2 µM | DU-145 > 100 µM | EKVX 12.3 µM | HL-60 76.2 µM | HOP-62 > 100 µM | HT-29 27.1 µM | Hs-578T 48.9 µM | IGROV-1 10.6 µM | K562 55 µM | MDA-MB-231 32.3 µM | MDA-MB-435 43.1 µM | MDA-N 48 µM | NCI-H226 17.8 µM | OVCAR-3 46.6 µM | OVCAR-4 15.7 µM | RPMI-8226 41.7 µM | SF-295 23.1 µM | SK-MEL-28 43 µM | SK-MEL-5 17.3 µM

CCN(CC)C1Oc2cc3c(cc2C(c2cc(OC)c(O)c(OC)c2)C1C)OCO3 (stereo unspecified)
inactive: CCRF-CEM 7.29 µM | DU-145 29.9 µM | EKVX 36.8 µM | HL-60 2.69 µM | HOP-62 10.1 µM | HT-29 7.31 µM | Hs-578T 6.84 µM | IGROV-1 9.98 µM | K562 2.98 µM | MDA-MB-231 18.8 µM | MDA-MB-435 2.14 µM | MDA-N 1.98 µM | NCI-H226 10.8 µM | OVCAR-3 7.21 µM | OVCAR-4 22.3 µM | RPMI-8226 7.14 µM | SF-295 5.22 µM | SK-MEL-28 14.2 µM | SK-MEL-5 3.63 µM
